Blank lines part the entries; values can stand above or below the compound they belong to.
Assays:
[1] = test system: PLD activity in human PMN; experiment: PLD activity (PEt formation) in PMN; format: cell-based; settings: PMN; IAP at LXA4 10^−9-10^−10 M, staurosporine (100 nM) at LXA4 10^−7 M
Protocol: PMN, platelet and RBC isolation from peripheral blood. Human PMN were obtained by the modified Böyum method (Böyum, A. (1968) Scan. J. Clin. Lab. Invest. 21:77) from fresh heparinized blood after venipuncture of healthy normal volunteers. Suspensions in PBS were monitored for cell number and viability by their ability to exclude trypan blue both exceeding 98%. Red blood cells were obtained from 10 ml of heparinized blood after three centrifugations in PBS (2,500 rpm, 10 min at 21° C.). Blood drawn in acidic citrate dextrose (9:1, v/v) was used to isolate platelets as previously described (Serhan, C. N. and Sheppard, K.-A. (1990) J. Clin. Invest. 85:772). PLD activity. Human PMN and HL-60 cells (50×10^6 cells/ml) prepared as above were incubated with ^3H-myristic acid or ^3H-palmitic acid (8 μCi/50×10^6 cells) for 40-60 min at 37° C. in PBS. […] Incubations were carried out at 37° C. (10 ×10^6 cells/ml PBS). […] M. et al. (1989) J. Biol. Chem. 264:17069. At indicated times, incubations were stopped by adding 3.5 ml of ice cold CHCl3/MeOH (2/5, v/v) containing 1-^14C-arachidonic acid (5,000 cpm) used here as internal standard to quantitate extraction recoveries. Samples were extracted using a modified Bligh and Dyer extraction as in (Serhan, C. N. and Sheppard, K. -A. (1990) J. Clin. Invest. 85:772). Organic phases, concentrated in 50 μL of CHCl3/MeOH (8/2, v/v), were spotted onto linear […] TLC plates developed with the organic phase of ethyl acetate[…][…] (110/50/20/100, v/v/v/v) for 50 min ([…]. et al.(1989) J. Biol. Chem. 264:17069). […] Regions corresponding to PA, PEt, and internal standards were scraped and quantified by liquid scintillation counting. […] In these experiments, PA was resolved using ethyl acetate[…][…]) as solvent system ([…]. et al. (1989) Anal. […] Impact of IAP and staurosporine on LXA4-induced PLD activity. PLD activity assays, performed as described (vide supra), were preceded by cell exposure to either IAP or staurosporine. […]

[2] = test system: PLD activity in differentiated HL-60 cells; experiment: PLD activity (PEt formation) in differentiated HL-60 cells; format: cell-based, human; settings: HL-60 cells; IAP (300 ng/ml) at LXA4 10^−9-10^−10 M, staurosporine (100 nM) at LXA4 10^−7 M
Protocol: Cell cultures and differentiation. HL-60 cells were seeded in RPMI medium supplemented with 100 U/ml penicillin, 100 μg/ml streptomycin, and 10% fetal calf serum (Hyclone, Logan, Utah), incubated at 37° C. with 5% CO2 atmosphere in 250 ml flasks. Individual flasks containing ˜[…] next received dimethyl sulfoxide (DMSO) (1.12% v/v, 120 h) or retinoic acid (RA) (1 μM, 120 h) or phorbol myristate acetate (PMA) (20 nM, 48 h). Before performing binding assays, cells were washed twice in phosphate buffered saline (PBS), Ca^2+- and Mg^2+-free, enumerated and suspended at 20×10^6 cells/ml in Tris buffer (10 mM), pH 7.4 (Fiore, S. et al.(1992) J. Biol. Chem. 267:16168). Nitro blue tetrazolium reduction was performed to monitor induction of polymorphonuclear phenotype as in (Imaizumi, M. and Breitman, T. R. (1986) Blood 67:1273), and cell adherence was determined for induction of macrophage-like phenotype (Collins, S. J. (1987) Blood 70:1273). Human umbilical vein endothelial cells (HUVEC) maintained in culture third passage were obtained from Dr. M. Gimbrone (Brigham and Women's Hospital Department of Pathology).
PLD activity. Human PMN and HL-60 cells (50×10^6 cells/ml) prepared as above were incubated with ^3H-myristic acid or ^3H-palmitic acid (8 μCi/50×10^6 cells) for 40-60 min at 37° C. in PBS. Cell uptake ranged between 60-80% of added label, 7.1±4.2% (n=10; mean ±S.D.) and 32.6±10.3% (n=6; mean ±S.D.) into total phospholipid classes of PMN and HL-60 cells, respectively. Incubations were carried out at 37° C. (10 ×10^6 cells/ml PBS). […] At indicated times, incubations were stopped by adding 3.5 ml of ice cold CHCl3/MeOH (2/5, v/v) containing 1-^14C-arachidonic acid (5,000 cpm) used here as internal standard to quantitate extraction recoveries. […] Regions corresponding to PA, PEt, and internal standards were scraped and quantified by liquid scintillation counting. […] All values reported for PEt formation in Tables 4 and 5 were calculated by subtracting the dpm obtained in the presence of […]. […]

A549 cells = experiment: A549 cell proliferation, MTT assay; format: cell-based, human; settings: Homo sapiens, A549
Protocol: A microculture 3,(4,5-dimethylthiazoyl-2-yl) 2,5 (diphenyl-tetrazolium bromide) (MTT) assay, (Marshall, N. J., et al. (1995) A critical assessment of the use of microculture tetrazolium assays to measure cell growth and function. Growth Regul. 5: 69-84.), was used to examine the actions of LXs and other eicosanoids on cell proliferation. A549 cells and fibroblasts from exponential-phase maintenance cultures were counted and dispensed within replicate 96-well culture plates in 100 μl volumes of medium (˜2000 cells/well). Following 24 hours at 37° C., the culture medium was removed, and fresh medium (100 μl) containing either the compounds (5-1000 nM) or vehicle (medium plus 0.15% ethanol) was added to 4 replicates for each condition studied and the culture plates were then incubated for up to 96 hours at 37° C. in a 5% CO2 atmosphere. At the end of this period, 25 μl of freshly prepared MTT in HBSS (5 mg/ml) was added to the wells and the plates were incubated for 4 hours at 37° C. Dye solution was aspirated, wells were washed once with HBSS and dye taken up by the cells was extracted in 100 μl of isopropyl alcohol:1 N HCl (96:4, v/v) and quantitated at 570 nm using a microplate reader (Molecular Devices, Menlo Park, Calif.). In some experiments, cells were grown in 12-well culture plates, treated as above and enumerated using a Neubauer hemocytometer. Viability was assessed routinely using trypan blue exclusion assay. For the A549 cells and fibroblasts, a linear relation was established for the MTT values and cell number within the range of the experiments shown (r=0.995, P<0.005). A549 cells grown for 72 hours in the presence of the compounds (5-1000 nM) or vehicle (0.15% EtOH) were lysed with 0.25 N NaOH and the cellular protein content was determined by applying the Bio-Rad (Richmond, Calif.) microassay method using bovine serum albumin as standard. The mean cellular protein content in resting A549 cells was 46.6±1.5 pg/cell.

human skin fibroblasts = experiment: Fibroblast proliferation, MTT assay; format: cell-based; settings: Homo sapiens, Skin fibroblast; 100 nM, n=3
Description: Human type II epithelial A549 cells from human lung carcinoma and normal human skin fibroblast (breast) were obtained from the American Type Culture Collection (Rockville, Md.). The A549 cell line originated from a human alveolar cell carcinoma and was a useful cell line because it was easily assessable and could be maintained in culture without contaminating tissue macrophages. (Lieber, M., et al (1976) A continuous tumor-cell line from a human lung carcinoma with properties of type II alveolar epithelial cells. Int. J Cancer Fibroblasts were utilized within their limited window of viability and their passage numbers were recorded (results are reported for cells from 3-5 passages). Epithelial A549 cells were seeded into T-75 cm^2 tissue culture flasks and maintained in F-12K medium supplemented with 10% heat-inactivated FBS, penicillin (50 U/mL) and streptomycin (50 (g/mL). Human PMN from healthy donors who had not taken ASA or other medications for at least two weeks were obtained by Ficoll-Hypaque gradient centrifugation and dextran sedimentation, (Böyum A. (1968) Isolation of mononuclear cells and granulocytes from human blood. […] Viability of A549 cells and PMN was determined by their ability to exclude trypan blue and were 95±2 and 97±1%, respectively.
A microculture 3,(4,5-dimethylthiazoyl-2-yl) 2,5 (diphenyl-tetrazolium bromide) (MTT) assay, (Marshall, N. J., et al. (1995) A critical assessment of the use of microculture tetrazolium assays to measure cell growth and function. Growth Regul. 5: 69-84.), was used to examine the actions of LXs and other eicosanoids on cell proliferation. A549 cells and fibroblasts from exponential-phase maintenance cultures were counted and dispensed within replicate 96-well culture plates in 100 μl volumes of medium (˜2000 cells/well). […] Dye solution was aspirated, wells were washed once with HBSS and dye taken up by the cells was extracted in 100 μl of isopropyl alcohol:1 N HCl (96:4, v/v) and quantitated at 570 nm using a microplate reader (Molecular Devices, Menlo Park, Calif.). […]

Compound: IAP: Islet activating protein
effect on LXA4-mediated PLD activity [1]: sensitive to IAP treatment
effect on LXA4-mediated PLD activity [2]: sensitive to IAP treatment

Compound: CN[C@@H]1C[C@H]2O[C@@](C)([C@@H]1OC)n1c3ccccc3c3c4c(c5c6ccccc6n2c5c31)C(=O)NC4 [staurosporine]
effect on LXA4-mediated PLD activity [1]: inhibited by staurosporine
effect on LXA4-mediated PLD activity [2]: inhibited by staurosporine

IC50 (A549 cells; MTT assay, 72 hours, read-out: half maximum inhibition (IC50) of A549 cell proliferation): ~7 nM
Compound: C[C@@H]1C[C@H]2[C@@H]3CCC4=CC(=O)C=C[C@]4(C)[C@@]3(F)[C@@H](O)C[C@]2(C)[C@@]1(O)C(=O)CO [Dexamethasone]
inhibition at 0.1 µM (A549 cells; 10^−7 M, 72 hours at 37° C., mean ± SEM, 3 to 7 experiments): 42.1 ± 5.4%
inhibition at 0.1 µM (human skin fibroblasts): 29.7%

Reference: patent publication US20030134901A1, “Lipoxin compounds and their use in treating cell proliferative disorders” (priority 1993, published 2003)
